Several values for one entry are separate records, joined by “and”; a condition that tells them apart may be missing. Equal entries are not always repeated. Where two headings read alike, the source gives them in different places.
Columns and labels:
HEK293/Human 5-HT3A = biological target: T1, HEK293/Human 5-HT3A (Homo sapiens, UniProt P46098); assay: Ca2+ flux (FLIPR) 5-HT3A antagonist assay; assay type: cell-based
T1 construct: expressed in transfected cells; host or cells: HEK293 (made by Bristol-Myers Squibb)
T1 sequence (P46098 24-478): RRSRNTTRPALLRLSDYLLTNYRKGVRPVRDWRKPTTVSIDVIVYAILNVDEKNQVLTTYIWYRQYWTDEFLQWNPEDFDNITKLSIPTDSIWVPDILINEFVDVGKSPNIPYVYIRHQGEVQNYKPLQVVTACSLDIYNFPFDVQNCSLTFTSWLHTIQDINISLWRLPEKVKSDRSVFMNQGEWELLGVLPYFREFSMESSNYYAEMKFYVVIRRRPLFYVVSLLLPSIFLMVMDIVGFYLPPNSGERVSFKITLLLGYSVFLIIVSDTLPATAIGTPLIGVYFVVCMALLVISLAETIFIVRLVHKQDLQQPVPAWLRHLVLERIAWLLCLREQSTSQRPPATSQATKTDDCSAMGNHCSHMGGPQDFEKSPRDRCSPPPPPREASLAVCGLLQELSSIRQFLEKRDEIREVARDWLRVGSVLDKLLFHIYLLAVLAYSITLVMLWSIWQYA
Procedure: Functional activity was examined using Ca^2+-sensitive, dye-based, microfluorometric assays read on the FLIPR Tetra plate reader platform (Molecular Devices, CA, USA). Cells were plated in 384-well black, clear-bottomed Greiner poly-D-lysine coated plates at a density of ~25 K cells/well and incubated at 29°C for 48 h. Prior to assay, media contents were removed and cells incubated in assay buffer containing 5μM final Fluo-4 dye for 90 min. For nAChR assays, the dye-loading buffer was HBSS (#14175 Life Technologies) supplemented with 20 mM HEPES, 0.5 mM CaCl2, 1 mM MgCl2 and 10 μM atropine (final concentration). Test compounds were solubilized in DMSO and serially diluted in NUNC 384-well plates prior to addition of assay buffer (5.3 mM KCl + 140 mM NaCl + 20 mM Hepes + 25 mM CaCl2 + 1 mM MgCl2 + 10 μM atropine final concentration). Compounds diluted in assay buffer were added to the assay plate by the FLIPR and read for approximately 2 min. […] For 5-HT3A antagonist studies, the dye loading and compound diluent buffer was HBSS (#14025 Life Technologies) supplemented with 20 mM HEPES (final concentration) and the concentration of 5-HT used in the assay was 2 μM. Offline transformation of concentration response data was done using a 4 parameter logistic fit using a Bristol-Myers Squibb proprietary informatics software suite.

C57Bl/6 mice = assay: Mouse 24 h novel object recognition; assay type: in vivo
Procedure: The procedure followed a 3 day protocol. On day 1 (habituation) individual mice were habituated to the testing chamber (a white PVC box 48 cm long x 38 cm wide x 20 cm high with brown linoleum flooring) for 15 min then returned to their home cage. On day 2 (training) individual mice were returned to the testing chamber containing 2 identical objects and allowed to explore. The training session lasted for up to 15 min or until the mouse explored the objects for a total of 60 s. A maximal trial duration of 15 min was used to accommodate mice that are slower to initiate exploration. On day 3 (testing) individual mice were returned to the testing chamber 24 h later containing 1 familiar object encountered in the previous training session and one novel object. The testing session lasted up to 10 min or until the mouse explored the objects for a total of 60 s. The objects used for these studies were made of duplex legos approximately 3 inches high x 1 inch wide; one object was a multicolored rectangle and the second object was a solid color rectangle with a short arm attached. The location of the objects was counterbalanced between animals but was consistent within animals so that only the object itself was novel on the test session. The familiar object used during the test session was the same object used during training and all objects were thoroughly cleaned between sessions and between subjects. Animal behavior was video recorded during both training and testing and the amount of time spent exploring the objects determined using Cleversys software. Object exploration was only scored when the animal’s nose was within 1 cm of the object. […] The vehicle was chosen for sc dosing to ensure that BMS-933043 was dosed as a solution and not a suspension. […] For each subject the % discrimination index (DI) was calculated for both the training and test session as follows: %DI training = (time exploring object 1—time exploring object 2)/(total time exploring object 1 + object 2) X 100; %DI testing = (time exploring novel object—time exploring familiar object)/(total time exploring novel + familiar object) X 100.

α7 nAChR = biological target: T2, α7 nAChR (Mus musculus, UniProt P49582); assay: Ex vivo α7 nAChR occupancy ([3H]-A-585539); assay type: in vivo; settings: mouse, sc, mice
T2 construct: One forebrain hemisphere from each animal was thawed and homogenized in assay buffer; from tissue; host or cells: forebrain homogenate of dosed male C57Bl/6 mice
T2 sequence (P49582 23-502): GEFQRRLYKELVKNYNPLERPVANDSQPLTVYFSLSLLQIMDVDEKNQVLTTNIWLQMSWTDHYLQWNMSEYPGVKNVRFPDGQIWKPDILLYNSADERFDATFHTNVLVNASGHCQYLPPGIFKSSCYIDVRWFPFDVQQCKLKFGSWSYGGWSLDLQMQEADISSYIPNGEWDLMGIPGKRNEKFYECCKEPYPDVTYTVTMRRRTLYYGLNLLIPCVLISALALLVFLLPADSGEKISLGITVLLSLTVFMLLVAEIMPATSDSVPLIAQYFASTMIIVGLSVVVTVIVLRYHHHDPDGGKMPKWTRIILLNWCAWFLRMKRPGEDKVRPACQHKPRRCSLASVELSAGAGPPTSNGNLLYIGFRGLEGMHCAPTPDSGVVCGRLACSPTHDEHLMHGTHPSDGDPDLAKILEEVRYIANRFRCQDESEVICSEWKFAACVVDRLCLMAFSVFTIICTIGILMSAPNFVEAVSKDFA
Procedure: Occupancy determinations were made either on completion of behavioral testing or in satellite groups of animals dosed in parallel with behavioral testing. At specified time points after dosing, the forebrain (for occupancy), the remaining hindbrain (for brain drug exposure) and plasma were collected, frozen in chilled isopentane and stored at -80°C until assayed. […] Homogenized tissue aliquots were frozen immediately and stored at -80°C. […] The filters were washed with ice-cold assay buffer, punched into a clear plate and 200 μl scintillation fluid added per well. Bound radioactivity was measured using a Wallac Microbeta liquid scintillation counter. Specific binding was calculated by subtracting the value of the non-specific binding from that of the total binding in each sample. The percent occupancy was calculated as [1 –(specific binding in drug treated mice/specific binding in vehicle treated mice)] x 100.

[1] = biological target: T3, HEK293/rat α7 nAChR cells (Rattus norvegicus, UniProt Q05941); assay: Whole cell voltage clamp electrophysiology; assay type: cell-based; settings: n = 6
T3 construct: expressed in transfected cells
T3 sequence (Q05941 23-502): as the sequence (P49582 23-502) above, with T402A counted along it
Procedure: Whole-cell voltage clamp studies were conducted on HEK293/rat α7 or HEK293/human α7 nAChR cells. […] Atropine (1 μM) was included in the bathing solution. […] Cells were voltage clamped at a holding potential of -90 mV. Using the Dynaflow microfluidic perfusion system (Cellectricon; flow 26 μl/min) responses to a 300 ms application of ACh or α7 nAChR agonists were measured. Currents were filtered at 2 kHz and sampled at 10 kHz using an EPC-9 amplifier and HEKA Pulse/Patchmaster software. […] The peak current amplitude and net charge crossing the membrane (i.e. the area under the current response curve) induced by agonist application were measured using Clampfit (pClamp Suite) and normalized to the maximal response induced by ACh (3 mM ACh for peak current amplitude and 300 μM ACh for net charge).

HEK293/Human α7 nAChR = HEK293/Human α7 nAChR (Homo sapiens, UniProt P36544); assay: Ca2+ flux (FLIPR) agonist assay; assay type: cell-based
Sequence of HEK293/Human α7 nAChR (P36544 23-502): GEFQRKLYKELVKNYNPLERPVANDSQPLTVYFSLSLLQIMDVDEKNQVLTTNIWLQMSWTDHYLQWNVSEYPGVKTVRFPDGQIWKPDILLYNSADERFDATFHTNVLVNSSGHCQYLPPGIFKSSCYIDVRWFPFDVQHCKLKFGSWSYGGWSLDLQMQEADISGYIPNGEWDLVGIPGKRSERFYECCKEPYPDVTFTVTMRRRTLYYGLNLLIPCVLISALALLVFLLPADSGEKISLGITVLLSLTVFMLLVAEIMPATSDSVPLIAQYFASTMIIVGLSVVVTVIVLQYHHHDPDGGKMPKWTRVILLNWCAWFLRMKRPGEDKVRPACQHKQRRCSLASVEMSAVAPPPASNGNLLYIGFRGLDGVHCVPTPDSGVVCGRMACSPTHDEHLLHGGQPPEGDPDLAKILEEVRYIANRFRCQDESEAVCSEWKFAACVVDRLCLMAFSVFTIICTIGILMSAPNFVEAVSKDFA
Sequence of HEK293/Human α7 nAChR (Q7Z5B4 29-369 partner): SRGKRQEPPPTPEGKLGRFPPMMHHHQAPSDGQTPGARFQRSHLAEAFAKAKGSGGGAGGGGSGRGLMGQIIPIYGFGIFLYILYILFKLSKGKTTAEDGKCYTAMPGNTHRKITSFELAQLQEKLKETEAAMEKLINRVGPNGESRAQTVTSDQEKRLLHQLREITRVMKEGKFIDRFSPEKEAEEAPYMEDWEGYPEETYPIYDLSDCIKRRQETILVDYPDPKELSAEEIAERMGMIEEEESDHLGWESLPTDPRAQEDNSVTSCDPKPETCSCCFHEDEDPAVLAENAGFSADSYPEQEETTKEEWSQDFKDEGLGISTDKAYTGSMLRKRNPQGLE
Procedure: Functional activity was examined using Ca^2+-sensitive, dye-based, microfluorometric assays read on the FLIPR Tetra plate reader platform (Molecular Devices, CA, USA). Cells were plated in 384-well black, clear-bottomed Greiner poly-D-lysine coated plates at a density of ~25 K cells/well and incubated at 29°C for 48 h. Prior to assay, media contents were removed and cells incubated in assay buffer containing 5μM final Fluo-4 dye for 90 min. […] Test compounds were solubilized in DMSO and serially diluted in NUNC 384-well plates prior to addition of assay buffer (5.3 mM KCl + 140 mM NaCl + 20 mM Hepes + 25 mM CaCl2 + 1 mM MgCl2 + 10 μM atropine final concentration). Compounds diluted in assay buffer were added to the assay plate by the FLIPR and read for approximately 2 min. […] Offline transformation of concentration response data was done using a 4 parameter logistic fit using a Bristol-Myers Squibb proprietary informatics software suite.

Rat Brain α7 nAChR = Rat Brain α7 nAChR (Rattus norvegicus, UniProt Q05941); assay: [3H]-A-585539 filtration binding
Sequence of Rat Brain α7 nAChR (Q05941 23-502): as the sequence (P49582 23-502) above, with T402A counted along it

[2] = Plasma and brain concentrations after dosing; assay type: in vivo, mouse; settings: for Kp: mouse, brain/plasma
Procedure: Occupancy determinations were made either on completion of behavioral testing or in satellite groups of animals dosed in parallel with behavioral testing. At specified time points after dosing, the forebrain (for occupancy), the remaining hindbrain (for brain drug exposure) and plasma were collected, frozen in chilled isopentane and stored at -80°C until assayed. […] Homogenized tissue aliquots were frozen immediately and stored at -80°C. […] Non-specific binding was defined by adding 25 μM MLA to wells containing tissues from vehicle-treated animals. […] The filters were washed with ice-cold assay buffer, punched into a clear plate and 200 μl scintillation fluid added per well. Bound radioactivity was measured using a Wallac Microbeta liquid scintillation counter. Specific binding was calculated by subtracting the value of the non-specific binding from that of the total binding in each sample. The percent occupancy was calculated as [1 –(specific binding in drug treated mice/specific binding in vehicle treated mice)] x 100.
In brief, 50 μL of the plasma sample was extracted by protein precipitation with 150 μL acetonitrile containing an internal standard and 5 μL of supernatant injected into the LC-MS/MS system. Analytes were separated by reversed phase chromatography and detection of each analyte was achieved through selected reaction monitoring mode of mass spectrometry.

[3] = design: method as in PMID 21337354; settings: rodents; cited from earlier work
[4] = NS-6740 (10 mg/kg sc) 10 min prior to BMS-933043 (0.3 mg/kg sc)

With `O=C(c1ccc(-c2cccc(C(F)(F)F)c2)o1)N1CCN2CCC1CC2` [NS-6740, 4-[[5-[3-(trifluoromethyl)phenyl]-2-furanyl]carbonyl]-1,4-diazabicyclo[3.2.2]nonane] the IC50 (HEK293/Human 5-HT3A; FLIPR, individual determinations, read-out: Human 5-HT3A IC50 values (individual)) was 6.21 µM and 5.69 µM and 5.32 µM and 5.91 µM and 2.39 µM and 3.11 µM and 4.7 µM and 5.68 µM and 4.43 µM, the IC50 (HEK293/Human 5-HT3A; HEK293/Human 5-HT3A Mean ± SD IC50, Ca2+ flux (FLIPR), antagonism of 2 μM 5-HT) was 4.83 µM and the “24 h recognition memory after NS-6740 alone” value (C57Bl/6 mice; 3 or 10 mg/kg sc) was “did not show improved 24 h recognition memory”. For the same compound, the “effect of pretreatment on BMS-933043 (0.3 mg/kg, sc) improved discrimination index” value (C57Bl/6 mice; NS-6740 10 mg/kg sc) was “abolished the improved discrimination index”, the “% Discrimination Index (DI) Testing (day 3) Mean ± SEM” value (C57Bl/6 mice; [4]) was 3.83 ± 4.25% and the “% Discrimination Index (DI) Training (day 2) Mean ± SEM” value (C57Bl/6 mice; [4]) was -4.82 ± 7.09%. For the same compound, the “% Discrimination Index (DI) Testing (day 3) Mean ± SEM” value (C57Bl/6 mice; NS-6740 (10 mg/kg sc)/Vehicle) was -1.02 ± 4.40%, the “% Discrimination Index (DI) Training (day 2) Mean ± SEM” value (C57Bl/6 mice; NS-6740 (10 mg/kg sc)/Vehicle) was 6.43 ± 5.54% and the receptor occupancy at 3 mg/kg (α7 nAChR; read-out: ex vivo α7 nAChR occupancy, NS-6740 3 mg/kg sc) was 89%. The receptor occupancy at 10 mg/kg (α7 nAChR; read-out: ex vivo α7 nAChR occupancy, NS-6740 10 mg/kg sc) was 98%, the IC50 ([1]; IC50 for inhibition of BMS-933043 (10 μM) net charge crossing the membrane) was 255 nM and the IC50 ([1]; IC50 for inhibition of BMS-933043 (10 μM) peak current response) was 283 ± 33 nM. For the same compound, the “α7 nAChR agonist activity” value (HEK293/Human α7 nAChR) was “no α7 nAChR agonist activity”, the Ki (Rat Brain α7 nAChR; displacement of [3H]-A-585539, read-out: Rat Brain α7 nAChR Mean ± SD Ki) was 2.85 ± 0.44 nM and the Ki (Rat Brain α7 nAChR; individual determinations, read-out: Rat Brain α7 nAChR Ki (individual)) was 2.45 nM and 2.78 nM and 3.33 nM. For the same compound, the “Brain Mean ± SD” value ([2]; NS-6740 0.3 mg/kg sc, mice) was 316 ± 43 nM, the “Plasma Mean ± SD” value ([2]; NS-6740 0.3 mg/kg sc, mice) was 37 ± 2 nM and the “Brain Mean ± SD” value ([2]; NS-6740 1 mg/kg sc, mice) was 1,125 ± 66 nM. The “Plasma Mean ± SD” value ([2]; NS-6740 1 mg/kg sc, mice) was 130 ± 7 nM, the “Brain Mean ± SD” value ([2]; NS-6740 3 mg/kg sc, mice) was 3,998 ± 273 nM and the “Plasma Mean ± SD” value ([2]; NS-6740 3 mg/kg sc, mice) was 544 ± 214 nM. The “Brain Mean ± SD” value ([2]; NS-6740 10 mg/kg sc, mice) was 17,725 ± 1,928 nM, the “Plasma Mean ± SD” value ([2]; NS-6740 10 mg/kg sc, mice) was 2,083 ± 426 nM and the Kp ([2]; NS-6740 0.3 mg/kg sc, mice, read-out: Brain/Plasma Ratio) was 8.54. It also gave a Kp ([2]; NS-6740 1 mg/kg sc, mice, read-out: Brain/Plasma Ratio) of 8.65, a Kp ([2]; NS-6740 3 mg/kg sc, mice, read-out: Brain/Plasma Ratio) of 7.35 and a Kp ([2]; NS-6740 10 mg/kg sc, mice, read-out: Brain/Plasma Ratio) of 8.51. For the same compound, the Kp ([2]; NS-6740, mice sc, read-out: average brain/plasma ratio) was over 8.

In the case of `CCN1C[C@]2(COC(=O)c3ccccc3N3C(=O)C[C@H](C)C3=O)CC[C@H](OC)[C@@]34[C@@H]5C[C@H]6[C@H](OC)[C@@H]5[C@](O)(C[C@@H]6OC)[C@@](O)([C@@H](OC)[C@H]23)[C@@H]14` [MLA, methyllycaconitine], the brain/plasma [3] is listed as 0.06–0.09.

— PMC4965148 (PLoS ONE, 2016)
